pIC50: −log10 of the molar value. Numbered stars: 1 amine (or outer) side, 2 acyl side, 3 side chain; on linkers, the order of the positions; unused ones are H or OH. Bridge positions count the residues as written; N and C are the ends. Square brackets hold non-standard residues; d marks the D form. Peptide text beside a SMILES is read from it. * marks the point of attachment. ξ: configuration not given here. X13 = O=C(O)CN1CCN(CC(=O)O)CCN(CC(=O)N2CCN(Cc3cc(C[*:1])cc(C[*:2])c3)CC2)CCN(CC(=O)O)CC1; X11 = O=C(O)CN1CCN(CC(=O)O)CCN(C(CCC(=O)NCCSCc2cc(C[*:1])cc(C[*:2])c2)C(=O)O)CC1; NH(1-deoxy-D-glucityl) = OC[C@@H](O)[C@@H](O)[C@H](O)[C@@H](O)CN*; X3 = NCCNCC(CNCCN)C(=O)NCCCOCCOCCOCCCN*; 2Nal = N[C@@H](Cc1ccc2ccccc2c1)C(=O)O; mXylylene = c1cc(C[*:1])cc(C[*:2])c1; Pyrazinecarbonyl = O=C(c1cnccn1)*; Hyp = O=C(O)[C@@H]1C[C@@H](O)CN1; Tic = O=C(O)[C@@H]1Cc2ccccc2CN1; Suc = O=C(CCC(=O)[*:2])[*:1]; Nle = CCCC[C@H](N)C(=O)O; Nphe = O=C(O)CNCc1ccccc1; Orn = NCCC[C@H](N)C(=O)O; Hexanoyl = CCCCCC(=O)*; ξC = NC(CS)C(=O)O; Sar = CNCC(=O)O
Experiments:
[1] = target: T1, FAP-expressing human WI-38 fibroblasts (Homo sapiens, UniProt Q12884); assay: Competitive FACS binding assay
T1 construct: FAP-expressing human WI-38 fibroblasts (ECACC) were cultured in EMEM; host or cells: WI-38 human fibroblasts
Procedure: Cells were analyzed in an Attune NxT flow cytometer. […] […].
Cells were analyzed in an Attune NxT flow cytometer. […]

Human recombinant FAP = Human recombinant FAP (Homo sapiens, UniProt Q12884); assay: FRET-based FAP protease activity assay; type: biochemical; set-up: purchased R&D systems 3715-SE
[2] = pIC50 Category (Activity), FRET-based FAP protease activity assay, recombinant human FAP, 37° C.
[3] = pIC50 Category (Activity), FRET-peptide substrate, 37° C.
[4] = pIC50 Category (activity), Recombinant human FAP

T1 sequence (Q12884 whole entry): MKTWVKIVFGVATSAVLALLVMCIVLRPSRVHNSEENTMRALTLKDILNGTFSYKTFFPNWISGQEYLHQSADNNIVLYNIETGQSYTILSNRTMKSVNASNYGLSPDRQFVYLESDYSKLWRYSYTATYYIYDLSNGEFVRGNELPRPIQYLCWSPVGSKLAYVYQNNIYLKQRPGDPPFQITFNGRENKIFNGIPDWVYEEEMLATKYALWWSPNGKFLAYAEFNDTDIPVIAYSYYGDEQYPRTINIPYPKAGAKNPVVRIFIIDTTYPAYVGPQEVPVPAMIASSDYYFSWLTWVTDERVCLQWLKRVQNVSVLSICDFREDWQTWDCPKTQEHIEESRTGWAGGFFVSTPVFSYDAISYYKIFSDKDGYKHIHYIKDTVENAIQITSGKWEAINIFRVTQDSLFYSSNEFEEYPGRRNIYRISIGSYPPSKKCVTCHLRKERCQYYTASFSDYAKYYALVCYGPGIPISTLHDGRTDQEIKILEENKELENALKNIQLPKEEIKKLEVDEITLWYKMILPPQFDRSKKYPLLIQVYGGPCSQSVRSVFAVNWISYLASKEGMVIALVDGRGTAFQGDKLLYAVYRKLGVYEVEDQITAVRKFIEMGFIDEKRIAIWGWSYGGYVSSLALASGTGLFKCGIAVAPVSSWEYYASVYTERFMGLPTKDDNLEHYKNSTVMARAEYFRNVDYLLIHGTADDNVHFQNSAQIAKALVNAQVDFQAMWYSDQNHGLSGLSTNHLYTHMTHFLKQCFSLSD
Sequence of Human recombinant FAP (Q12884 whole entry): as above

| pIC50 [1] | pIC50 (Human recombinant FAP; [2]) | pIC50 (Human recombinant FAP; [3]) | SMILES | pIC50 (Human recombinant FAP; [4]) |
| --- | --- | --- | --- | --- |
| < 6.00 | 6.10 to 7.00 |  | CC(=O)N[C@@H](CCO)C(=O)N[C@H]1CSCc2cccc(c2)CSC[C@@H](C(N)=O)NC(=O)[C@H](Cc2ccccc2)NC(=O)[C@H](CCC(N)=O)NC(=O)[C@H]([C@@H](C)O)NC(=O)[C@@H]2CCCN2C(=O)[C@@H]2CCCN2C1=O [3BP-3763, Ac-Hse-[Cys(3MeBn)-Pro-Pro-Thr-Gln-Phe-Cys]-NH2] |  |
| < 6.00 | < 6.00 |  | CCCCCC(=O)N[C@H]1CSCc2cccc(c2)CSC[C@@H](C(N)=O)NC(=O)CN(Cc2ccccc2)C(=O)[C@H](CCC(=O)O)NC(=O)[C@H]([C@@H](C)O)NC(=O)[C@@H]2CCCN2C(=O)[C@@H]2CCCN2C1=O [3BP-3360, Hex-[Cys(3MeBn)-Pro-Pro-Thr-Glu-Nphe-Cys]-NH2] (Hexanoyl-CPPTE[Nphe]C-NH2; linker 1-7 via mXylylene) |  |
| 6.10 to 7.00 | 7.10 to 8.00 |  | CCCCCC(=O)N[C@H]1CSCc2cccc(c2)CSC[C@@H](C(N)=O)NC(=O)[C@H](Cc2ccccc2)NC(=O)[C@H](CCC(=O)O)NC(=O)[C@H]([C@@H](C)O)NC(=O)[C@@H]2CCCN2C(=O)CN(C)C1=O [3BP-3347, Hex-[Cys(3MeBn)-Nmg-Pro-Thr-Glu-Phe-Cys]-NH2] (Hexanoyl-C[Sar]PTEFC-NH2; linker 1-7 via mXylylene) |  |
| < 6.00 | < 6.00 |  | C[C@@H](O)[C@@H]1NC(=O)[C@@H]2CCCN2C(=O)[C@@H]2CCCN2C(=O)[C@@H](NC(=O)CCCN)CSCc2cccc(c2)CSC[C@@H](C(N)=O)NC(=O)[C@H](Cc2ccccc2)NC(=O)[C@H](CCC(N)=O)NC1=O [3BP-3761, H-Gab-[Cys(3MeBn)-Pro-Pro-Thr-Gln-Phe-Cys]-NH2] |  |
| 7.10 to 8.00 | 7.10 to 8.00 |  | CCCCCC(=O)N[C@H]1CSCc2cccc(c2)CSC[C@@H](C(N)=O)NC(=O)[C@H](Cc2ccccc2)NC(=O)[C@H](CCC(=O)O)NC(=O)[C@H]([C@@H](C)O)NC(=O)[C@@H]2C[C@@H](O)CN2C(=O)[C@@H]2CCCN2C1=O [3BP-3366, Hex-[Cys(3MeBn)-Pro-Hyp-Thr-Glu-Phe-Cys]-NH2] (Hexanoyl-CP[Hyp]TEFC-NH2; linker 1-7 via mXylylene) |  |
| 7.10 to 8.00 |  | 7.10 to 8.00 | CCCC[C@H](NC(=O)CCC(=O)NCCCOCCOCCOCCCNC(=O)CN1CCN(CC(=O)O)CCN(CC(=O)O)CCN(CC(=O)O)CC1)C(=O)N[C@H]1CSCc2cc(CSCCNC(=O)CN3CCN(CC(=O)O)CCN(CC(=O)O)CCN(CC(=O)O)CC3)cc(c2)CSC[C@@H](C(=O)N[C@@H](CC(=O)O)C(=O)NCCCOCCOCCOCCCNC(=O)CCC(=O)N[C@@H](CCCCNC(=O)CN2CCN(CC(=O)O)CCN(CC(=O)O)CCN(CC(=O)O)CC2)C(N)=O)NC(=O)[C@H](Cc2ccccc2)NC(=O)[C@H](CCC(N)=O)NC(=O)[C@H]([C@@H](C)O)NC(=O)[C@@H]2CCCN2C(=O)[C@@H]2CCCN2C1=O [3BP-4392, DOTA-Ttds-Nle-[Cys(tMeBn(DOTA-AET))-Pro-Pro-Thr-Gln-Phe-Cys]-Asp-Ttds-Lys(DOTA)-NH2] |  |
| < 6.00 | < 6.00 |  | C[C@@H](O)[C@@H]1NC(=O)[C@@H]2CCCN2C(=O)[C@@H]2CCCN2C(=O)[C@@H](NC(=O)CCCCCN)CSCc2cccc(c2)CSC[C@@H](C(N)=O)NC(=O)[C@H](Cc2ccccc2)NC(=O)[C@H](CCC(N)=O)NC1=O [3BP-3759, H-Ahx-[Cys(3MeBn)-Pro-Pro-Thr-Gln-Phe-Cys]-NH2] |  |
| 7.10 to 8.00 |  | 7.10 to 8.00 | C=CCCC(=O)N[C@H]1CSCc2cc(CSCCNC(=O)CN3CCN(CC(=O)O)CCN(CC(=O)O)CCN(CC(=O)O)CC3)cc(c2)CSC[C@@H](C(=O)O)NC(=O)[C@H](Cc2ccccc2)NC(=O)[C@H](CCC(N)=O)NC(=O)[C@H]([C@@H](C)O)NC(=O)[C@@H]2CCCN2C(=O)[C@@H]2CCCN2C1=O [3BP-3914, Peet-[Cys(tMeBn(DOTA-AET))-Pro-Pro-Thr-Gln-Phe-Cys]-OH] |  |
| < 6.00 | 6.10 to 7.00 |  | CCCCCC(=O)N[C@H]1CSCc2cccc(c2)CSC[C@@H](C(N)=O)NC(=O)[C@H](Cc2ccccc2)NC(=O)[C@H](CCC(=O)O)NC(=O)[C@H](CCCNC(=O)c2cnccn2)NC(=O)[C@@H]2CCCN2C(=O)[C@@H]2CCCN2C1=O [3BP-3355, Hex-[Cys(3MeBn)-Pro-Pro-Opc-Glu-Phe-Cys]-NH2] (Hexanoyl-CPP[Orn](Pyrazinecarbonyl)EFC-NH2; linker 1-7 via mXylylene) |  |
| 7.10 to 8.00 | 7.10 to 8.00 |  | CSCC[C@@H](NC(C)=O)C(=O)N[C@H]1CSCc2cc(CSCCNC(=O)CN3CCN(CC(=O)O)CCN(CC(=O)O)CCN(CC(=O)O)CC3)cc(c2)CSC[C@@H](C(=O)O)NC(=O)[C@H](Cc2ccccc2)NC(=O)[C@H](CCC(N)=O)NC(=O)[C@H]([C@@H](C)O)NC(=O)[C@@H]2CCCN2C(=O)[C@@H]2CCCN2C1=O [3BP-3682, Ac-met-[Cys(tMeBn(DOTA-AET))-Pro-Pro-Thr-Gln-Phe-Cys]-OH] |  |
| < 6.00 | 6.10 to 7.00 |  | CCCCCC(=O)N[C@H]1CSCc2cccc(c2)CSC[C@@H](C(N)=O)NC(=O)[C@@H]2Cc3ccccc3CN2C(=O)[C@H](CCC(=O)O)NC(=O)[C@H]([C@@H](C)O)NC(=O)[C@@H]2CCCN2C(=O)[C@@H]2CCCN2C1=O [3BP-3359, Hex-[Cys(3MeBn)-Pro-Pro-Thr-Glu-Tic-Cys]-NH2] (Hexanoyl-CPPTE[Tic]C-NH2; linker 1-7 via mXylylene) |  |
| < 6.00 | 6.10 to 7.00 |  | CCCCCC(=O)N[C@H]1CSCc2cccc(c2)CSC[C@@H](C(N)=O)NC(=O)[C@H](Cc2ccccc2)NC(=O)[C@H](CCC(=O)O)NC(=O)[C@H](CCCNC(C)=O)NC(=O)[C@@H]2CCCN2C(=O)[C@@H]2CCCN2C1=O [3BP-3372, Hex-[Cys(3MeBn)-Pro-Pro-Orn(Ac)-Glu-Phe-Cys]-NH2] (Hexanoyl-CPP[Orn](Ac)EFC-NH2; linker 1-7 via mXylylene) |  |
| 6.10 to 7.00 | 6.10 to 7.00 |  | CCCCCC(=O)N[C@H]1CSCc2cccc(c2)CSC[C@@H](C(N)=O)NC(=O)[C@H](Cc2ccc3ccccc3c2)NC(=O)[C@H](CCC(=O)O)NC(=O)[C@H]([C@@H](C)O)NC(=O)[C@@H]2CCCN2C(=O)[C@@H]2CCCN2C1=O [3BP-3362, Hex-[Cys(3MeBn)-Pro-Pro-Thr-Glu-2Ni-Cys]-NH2] (Hexanoyl-CPPTE[2Nal]C-NH2; linker 1-7 via mXylylene) |  |
| < 6.00 |  | < 6.00 | CCCC[C@H](NC(=O)[C@H](CCC(=O)NC[C@H](O)[C@@H](O)[C@H](O)[C@H](O)CO)NC(=O)CCC(=O)NCCCOCCOCCOCCCNC(=O)C(CNCCN)CNCCN)C(=O)N[C@H]1CSCc2cccc(c2)CSC[C@@H](C(=O)O)NC(=O)[C@H](Cc2ccccc2)NC(=O)[C@H](CCC(=O)O)NC(=O)[C@H]([C@@H](C)O)NC(=O)[C@@H]2CCCN2C(=O)[C@@H]2CCCN2C1=O [3BP-4231, N4Ac-Ttds-Glu(AGLU′)-Nle-[Cys-(3MeBn)-Pro-Pro-Thr-Glu-Phe-Cys]-OH] ({X3-Suc}-E(NH(1-deoxy-D-glucityl))[Nle]CPPTEFC-OH; linker 3-9 via mXylylene) |  |

| SMILES | pIC50 [1] | pIC50 (Human recombinant FAP; [2]) | pIC50 (Human recombinant FAP; [3]) | pIC50 (Human recombinant FAP; [4]) |
| --- | --- | --- | --- | --- |
| CCCCCC(=O)N[C@H]1CSCc2cc(cc(CN3CCN(C(=O)CN4CCN(CC(=O)O)CCN(CC(=O)O)CCN(CC(=O)O)CC4)CC3)c2)CSC[C@@H](C(=O)N[C@@H](CC(=O)O)C(N)=O)NC(=O)[C@H](CCC(N)=O)NC(=O)[C@H](Cc2ccccc2)NC(=O)[C@@H]2CCCN2C(=O)[C@H]([C@@H](C)O)NC(=O)[C@@H]2CCCN2C1=O [3BP-3854, Hex-[Cys(tMeBn(DOTA-PP))-Pro-Thr-Pro-Phe-Gln-Cys]-Asp-NH2] (Hexanoyl-CPTPFQCD-NH2; linker 1-7 via X13) | < 6.00 | < 6.00 |  |  |
| CCCCCC(=O)N[C@H]1CSCc2cc(CSCCNC(=O)CCC(C(=O)O)N3CCN(CC(=O)O)CCN(CC(=O)O)CC3)cc(c2)CSCC(C(=O)O)NC(=O)[C@H](Cc2ccccc2)NC(=O)[C@H](CCC(=O)O)NC(=O)[C@H]([C@@H](C)O)NC(=O)[C@@H]2CCCN2C(=O)[C@@H]2CCCN2C1=O (stereo partly drawn) [3BP-4695, Hex-[Cys(tMeBn(NODAGA-AET))-Pro-Pro-Thr-Glu-Phe-Cys]-OH] (Hexanoyl-CPPTEF[ξC]-OH; linker 1-7 via X11) | 7.10 to 8.00 |  |  | 7.10 to 8.00 |
| CCCCCC(=O)N[C@H]1CSCc2cc(CSCCNC(=O)COc3ccc4nc3CN(CC(=O)O)CCN(CC(=O)O)CCN(CC(=O)O)C4)cc(c2)CSCC(C(=O)O)NC(=O)[C@H](Cc2ccccc2)NC(=O)[C@H](CCC(N)=O)NC(=O)[C@H]([C@@H](C)O)NC(=O)[C@@H]2CCCN2C(=O)[C@@H]2CCCN2C1=O (stereo partly drawn) [3BP-5273, Hex-[Cys(tMeBn(AcPCTA-AET))-Pro-Pro-Thr-Gln-Phe-Cys]-OH] | > 8.00 |  |  | > 8.00 |
| CCCCCC(=O)N[C@H]1CSCc2cc(cc(CN3CCN(C(=O)CN4CCN(CC(=O)O)CCN(CC(=O)O)CCN(CC(=O)O)CC4)CC3)c2)CSC[C@@H](C(=O)N[C@@H](CC(=O)O)C(N)=O)NC(=O)[C@H](Cc2ccccc2)NC(=O)[C@H](C)NC(=O)[C@H]([C@@H](C)O)NC(=O)[C@@H]2CCCN2C(=O)[C@@H]2CCCN2C1=O [3BP-3739, Hex-[Cys(tMeBn(DOTA-PP))-Pro-Pro-Thr-Ala-Phe-Cys]-Asp-NH2] (Hexanoyl-CPPTAFCD-NH2; linker 1-7 via X13) | 6.10 to 7.00 | 6.10 to 7.00 |  |  |
| CCCCCC(=O)N[C@H]1CSCc2cc(cc(CN3CCN(C(=O)CN4CCN(CC(=O)O)CCN(CC(=O)O)CCN(CC(=O)O)CC4)CC3)c2)CSC[C@@H](C(=O)N[C@@H](CC(=O)O)C(N)=O)NC(=O)[C@@H]2CCCN2C(=O)[C@H](Cc2ccccc2)NC(=O)[C@@H]2CCCN2C(=O)[C@H](CCC(N)=O)NC(=O)[C@H]([C@@H](C)O)NC1=O [3BP-3856, Hex-[Cys(tMeBn(DOTA-PP))-Thr-Gln-Pro-Phe-Pro-Cys]-Asp-NH2] (Hexanoyl-CTQPFPCD-NH2; linker 1-7 via X13) | < 6.00 | < 6.00 |  |  |
